Measured values as given in ChEMBL document CHEMBL1201862, “PubChem BioAssay data set” (2004).
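Compound exposure: 48 hours, 5 concentrations, 96-well plates. Abbreviation: GI50, concentration required for 50% inhibition of growth.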 Calls of active or inactive are those of the source. Cut-off read from the data, not from the text of the source: active = GI50 up to about 1.1 µM and inactive = higher.

How the values were obtained:
Assay in all cases: NCI tumour cell line growth inhibition, 48 h
U-251 = test system: U-251
RXF 393 = test system: RXF 393
SF-295 = test system: SF-295
NCI-H23 = test system: NCI-H23
SK-MEL-5 = test system: SK-MEL-5
HOP-92 = test system: HOP-92
SN12C = test system: SN12C
UACC-257 = test system: UACC-257
M14 = test system: M14
NCI-H522 = test system: NCI-H522
KM12 = test system: KM12
HOP-62 = test system: HOP-62
K562 = test system: K562
LOX IMVI = test system: LOX IMVI
A498 = test system: A498
HCT-116 = test system: HCT-116

Measured: GI50

CCn1cc(/C=C/C(C)c2cn(CC)c(=O)[nH]c2=O)c(=O)[nH]c1=O (centres undefined)
inactive: U-251 > 100 µM | RXF 393 > 100 µM | SF-295 > 100 µM | NCI-H23 > 100 µM | SK-MEL-5 > 100 µM | HOP-92 11.3 µM | SN12C > 100 µM | UACC-257 > 100 µM | M14 > 100 µM | NCI-H522 > 100 µM | KM12 > 100 µM | HOP-62 > 100 µM | K562 > 100 µM | LOX IMVI > 100 µM

O=C(NCCOCCO)c1ccc(O)cc1
inactive: U-251 > 100 µM | RXF 393 > 100 µM | NCI-H23 > 100 µM | SK-MEL-5 > 100 µM | A498 > 100 µM | HOP-92 > 100 µM | SN12C > 100 µM | HCT-116 > 100 µM | M14 > 100 µM | NCI-H522 > 100 µM | HOP-62 > 100 µM | K562 > 100 µM | LOX IMVI > 100 µM

CC1(C)CCC(Sc2ccccc2)O1 (centres undefined)
inactive: U-251 > 100 µM | RXF 393 > 100 µM | SF-295 > 100 µM | NCI-H23 > 100 µM | SK-MEL-5 > 100 µM | A498 > 100 µM | HOP-92 > 100 µM | SN12C > 100 µM | HCT-116 > 100 µM | UACC-257 > 100 µM | M14 > 100 µM | KM12 > 100 µM | HOP-62 > 100 µM | K562 > 100 µM | LOX IMVI > 100 µM

Cc1cc(C)nc(NS(=O)(=O)c2ccc(Nc3c4ccc(Cl)cc4nc4c(C(=O)Nc5ccc(S(N)(=O)=O)cc5)cccc34)cc2)n1
inactive: U-251 14.4 µM | RXF 393 13.3 µM | SF-295 18.2 µM | NCI-H23 15.1 µM | A498 14.8 µM | SN12C 15 µM | HCT-116 16.6 µM | UACC-257 18.8 µM | M14 17.4 µM | NCI-H522 10.9 µM | KM12 14.2 µM | HOP-62 14.1 µM | K562 25.1 µM | LOX IMVI 16 µM

O=C1c2ccccc2C2(O)Nc3c(ccc4ccccc34)C12O (centres undefined)
inactive: U-251 > 100 µM | RXF 393 > 100 µM | SF-295 > 100 µM | NCI-H23 > 100 µM | SK-MEL-5 72.8 µM | A498 > 100 µM | SN12C > 100 µM | HCT-116 > 100 µM | UACC-257 > 100 µM | M14 > 100 µM | NCI-H522 95.5 µM | KM12 87.1 µM | HOP-62 > 100 µM | K562 61.4 µM | LOX IMVI > 100 µM

CCN(CC)CC(C(C)=O)C(c1ccccc1)c1c(O)c2ccccc2oc1=O (centres undefined)
inactive: U-251 > 100 µM | RXF 393 > 100 µM | SF-295 > 100 µM | SK-MEL-5 > 100 µM | A498 > 100 µM | SN12C > 100 µM | HCT-116 > 100 µM | UACC-257 63.1 µM | M14 > 100 µM | NCI-H522 > 100 µM | KM12 > 100 µM | HOP-62 > 100 µM | K562 > 100 µM | LOX IMVI > 100 µM

O=C1OC(/C=C/c2ccccc2)C(=O)C1=O (centres undefined)
inactive: U-251 > 100 µM | RXF 393 > 100 µM | SF-295 > 100 µM | NCI-H23 > 100 µM | A498 > 100 µM | HOP-92 > 100 µM | UACC-257 > 100 µM | M14 > 100 µM | NCI-H522 > 100 µM | KM12 > 100 µM | HOP-62 > 100 µM | K562 > 100 µM

c1ccc(/N=C2\c3ccccc3C3=NCCCN32)cc1
inactive: U-251 > 100 µM | RXF 393 34.7 µM | SF-295 92 µM | NCI-H23 41.5 µM | SK-MEL-5 28 µM | A498 43.2 µM | HOP-92 13.8 µM | SN12C > 100 µM | HCT-116 40.2 µM | UACC-257 40.4 µM | M14 > 100 µM | NCI-H522 18.1 µM | KM12 38.7 µM | HOP-62 67.6 µM | K562 29.2 µM | LOX IMVI 47.1 µM

C=CCN(N=O)C(=O)ON1C(=O)CCC1=O
inactive: U-251 17.7 µM | RXF 393 > 100 µM | SF-295 > 100 µM | NCI-H23 > 100 µM | A498 > 100 µM | HOP-92 > 100 µM | SN12C > 100 µM | HCT-116 > 100 µM | UACC-257 > 100 µM | M14 > 100 µM | NCI-H522 64.7 µM | KM12 > 100 µM | HOP-62 > 100 µM | K562 > 100 µM | LOX IMVI > 100 µM

C/C=C1/C=CC2c3[nH]c4ccccc4c3CCN2C1 (centres undefined)
inactive: U-251 > 400 µM | RXF 393 > 400 µM | SF-295 315 µM | NCI-H23 > 400 µM | SK-MEL-5 138 µM | HOP-92 199 µM | SN12C > 400 µM | HCT-116 223 µM | UACC-257 243 µM | NCI-H522 195 µM | KM12 > 400 µM | HOP-62 > 400 µM | K562 > 400 µM | LOX IMVI > 400 µM

Cn1nc(-c2ccccc2)c2c(/C=C/c3ccc(F)cc3)onc2c1=O
inactive: U-251 64 µM | RXF 393 23.3 µM | NCI-H23 19 µM | SK-MEL-5 > 100 µM | HOP-92 2.72 µM | SN12C 88.1 µM | HCT-116 9.59 µM | M14 > 100 µM | NCI-H522 17.5 µM | HOP-62 > 100 µM | K562 17.3 µM | LOX IMVI 90.4 µM

COc1ccc(C2CCc3cc4c(cc3/C2=N/OC(C)=O)OCO4)cc1OC (centres undefined)
inactive: U-251 23.8 µM | RXF 393 14 µM | SF-295 23 µM | NCI-H23 10.4 µM | SK-MEL-5 8.65 µM | HOP-92 23.1 µM | SN12C 26.9 µM | HCT-116 14.2 µM | UACC-257 18.4 µM | M14 20.6 µM | NCI-H522 12 µM | KM12 20.8 µM | HOP-62 40.3 µM | K562 20.2 µM | LOX IMVI 15.9 µM

Cn1c(=O)c(C(c2ccc([N+](=O)[O-])cc2)c2c(O)c3ccccc3n(C)c2=O)cc2ccccc21 (centres undefined)
inactive: U-251 18.2 µM | RXF 393 26.4 µM | SF-295 39.3 µM | NCI-H23 32.6 µM | SK-MEL-5 51.3 µM | HOP-92 53.1 µM | SN12C 57.7 µM | HCT-116 44.2 µM | UACC-257 20.5 µM | M14 37.8 µM | NCI-H522 20 µM | KM12 75.2 µM | HOP-62 27.7 µM | K562 > 100 µM | LOX IMVI 35.2 µM

Nc1ccccc1N
inactive: U-251 > 100 µM | RXF 393 > 100 µM | SF-295 > 100 µM | NCI-H23 > 100 µM | SK-MEL-5 > 100 µM | A498 > 100 µM | HOP-92 > 100 µM | SN12C > 100 µM | HCT-116 > 100 µM | M14 > 100 µM | NCI-H522 15.5 µM | KM12 > 100 µM | HOP-62 > 100 µM | K562 > 100 µM | LOX IMVI > 100 µM
